Laboratory results published in patent publication US20240325544A1, “CATIONIC LIPID FOR COVALENT MODIFICATION OF PEPTIDES” (PharmalN Corporation, priority 2023, published 2024).
Marks after values point to notes of the source that are not given here. Bridge positions count the residues as written; N and C are the ends. Square brackets hold non-standard residues; d marks the D form. Ends that are not written are not given here. Peptide text beside a SMILES is read from it. * marks the point of attachment. Palmitoyl = CCCCCCCCCCCCCCCC(=O)*; Dab = NCC[C@H](N)C(=O)O; Dap = NC[C@H](N)C(=O)O; AEEA = NCCOCCOCC(=O)O

Columns and labels:
[1] = system: E0771 breast cancer cells; assay: Orthotopic mouse model of breast cancer using E0771 cells (FIG. 6); type: in vivo, mice; conditions: 0.3 mg/kg (0.1 μmol/kg) SC once daily, 5 days on, 2 days off, 3 cycles
Procedure: Error bars represent standard error of the mean. FIG. 6A) Tumor growth kinetics of 6-week-old female C57BL/6J mice (n=10 per group) that were inoculated with E0771 breast cancer cells (250,000 cells/mouse) in the mammary gland. Starting from Day 4 post-inoculation, cationic alkyl modified CNP derivatives (SEQ ID NO: 29, 30, and 31) were administered subcutaneously at a bolus dose of 0.3 mg/kg (0.1 μmol/kg) once daily for 5 days (5 days on, 2 days off) for 3 cycles; dose days indicated by gridlines. The control group, which received only buffer, was dosed in the same manner to establish the baseline tumor growth kinetics. […] Therefore, it can be concluded that the attachment of CNP is important for the observed anti-tumor activity. Statistical analysis was based on Dunnett's test performed by using GraphPad (n=10, 10, 10, and 10; Control, SEQ ID NO: 29, SEQ ID NO: 30, and SEQ ID NO: 31) **** P<0.0001 vs Control group.
Therefore, it can be concluded that the attachment of CNP is essential for anti-tumor activity. […] Animal care and treatment: Female C57BL/6J mice (6 weeks-old) were purchased from Kyudo (Saga, Japan) and maintained under a 12-hour light/12-hour dark cycle with free access to water and standard mouse diet (MF diet, Oriental Yeast Co., Ltd. Tokyo, Japan or PicoLab Rodent Diet 20, LabDiet Corp., St. Louis, Missouri). Implantation and drug administration: Mice were implanted with E0771 breast cancer cells (250,000 cells/mouse; Cosmo Bio Tokyo, Japan) in their left mammary gland and were randomized into groups of n=10. Starting from Day 4 post-inoculation, cationic alkyl modified CNP derivatives (SEQ ID NOs: 29, 30, and 31) were administered subcutaneously at a bolus dose of 0.3 mg/kg (0.1 μmol/kg; with a dose volume of 10 mL/kg) in sterile water for injection (Otsuka Pharmaceutical, Tokushima, Japan) once daily for 5 days (5 days on, 2 days off) for 3 cycles. The control group, which received only buffer, was dosed in the same manner to establish the baseline tumor growth kinetics. Tumor sizes were measured using calipers. Statistical analysis was based on Dunnett's test performed by using GraphPad (n=10, 10, 10, and 10; Control, SEQ ID NO: 29, SEQ ID NO: 30, and SEQ ID NO: 31) **** P<0.0001 vs Control group.

Sprague Dawley rats [2] = assay: Dose-range finding of cationic alkyl modified CNP, subcutaneous bolus in rats (Table 2)
cGMP = assay: Plasma cGMP after SC bolus of natriuretic peptides in CD-1 mice (pharmacodynamics, Table 3); type: in vivo; conditions: SC bolus 1.0 mg/kg (≤0.45 μmol/kg), baseline 10 +/−8 pmol/ml, n = 3-5
Summary of the method: (§1)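 Peptides given SC in sterile water; retro-orbital blood at 2 and 6 h post-dose (two bleeds per mouse), K2EDTA plasma. Plasma cGMP by commercial immunoassay kit; ANP, BNP or CNP plasma levels by peptide-specific ELISA.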

[3] = Plasma concentration of respective natriuretic peptide by ELISA after SC bolus in CD-1 mice (pharmacokinetics, Table 3); conditions: male, CD-1, mouse, in vivo, sc, 1 mg/kg
Summary of the method: as §1

[4] = Clinically observable adverse effects of cationic alkyl moieties after subcutaneous bolus in rats (Table 1); type: in vivo, rat; conditions: male, Sprague-Dawley, rat, in vivo, sc, tested at 3.0, 5.0 or 10 μmol/kg, lethargy is considered maximum tolerated bolus dose, read-out: Lethargy* in n = 3
Summary of the method: (§2)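 Rats given subcutaneous bolus of cationic alkyl modifier in sterile water pH 4.5-5, starting 5.0 μmol/kg, raised to 10 μmol/kg if no swelling or lowered to 3.0 μmol/kg if swelling, 1-week wash-out. Monitored for lethargy, ataxia, swelling, discoloration closely for 4 h, then hourly.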

Sprague Dawley rats [5] = assay: as above; type: in vivo, rat; conditions: tested at 3.0, 5.0 or 10 μmol/kg; for Ataxia** in n = 3: ataxia is bolus dose limiting toxicity; for Swelling and/or Discoloration in n = 3: dose at which sign was seen
Summary of the method: as §2

MC38 colon cancer cells = assay: Subcutaneous mouse model of colon cancer using MC38 cells (FIG. 12); type: in vivo, mice; conditions: combination with anti-tigit Ab 5 mg/kg IP twice a week, 2 cycles
Procedure: FIGS. 12A-12B. […] Error bars represent standard error of the mean. FIG. 12A) A diagram of the dose schedule for administration of immune checkpoint inhibitor (anti-tigit Ab) and SEQ ID NO: 31. FIG. 12 B) Tumor growth kinetics of 6-week-old male C57BL/6J mice (n=8-9 per group) that were subcutaneously inoculated with MC38 colon cancer cells (1,000,000 cells/mouse) in right flank. Starting from Day 4 post-inoculation, anti-tigit Ab was administered intraperitoneally at 5 mg/kg twice a week for 2 cycles; SEQ ID NO: 31 was administered subcutaneously at a bolus dose of 0.3 mg/kg (0.1 μmol/kg) once daily for 5 days (5 days on, 2 days off) for 3 cycles; or a combination of anti-tigit Ab (5 mg/kg IP twice a week; 2 cycles) and SEQ ID NO: 31 (0.3 mg/kg SC once a day for 5 days on and 2 days off; 3 cycles). The control group, which received only buffer, was dosed in the same manner as SEQ ID NO: 31 to establish the baseline tumor growth kinetics. […]
Animal care and treatment: Male C57BL/6J mice (6 weeks-old) were purchased from Kyudo (Saga, Japan) and maintained under a 12-hour light/12-hour dark cycle with free access to water and standard mouse diet (MF diet; Oriental Yeast Co., Ltd, Tokyo Japan). […] Tumor sizes were measured using calipers on Days 4, 7, 14, and Day 22 post-inoculation. […]

[6] = target: T1, Recombinant human NPRB extracellular domain - human IgG1 Fc fusion (NPRB-Fc) (human, UniProt P20594 23-458); assay: Fluorescence polarization, 5 nM CNP-F* with 50 nM human NPRB
T1 construct: extracellular domain; Used at 50 nM in the fluorescence polarization assay; R1-T433 counts on the mature protein; also called natriuretic peptide receptor B; not shown: Human IgG1 heavy chain, amino acids E216-G446 (IMGT.org, EU numbering), Accn; P01857.2
T1 sequence (looked up): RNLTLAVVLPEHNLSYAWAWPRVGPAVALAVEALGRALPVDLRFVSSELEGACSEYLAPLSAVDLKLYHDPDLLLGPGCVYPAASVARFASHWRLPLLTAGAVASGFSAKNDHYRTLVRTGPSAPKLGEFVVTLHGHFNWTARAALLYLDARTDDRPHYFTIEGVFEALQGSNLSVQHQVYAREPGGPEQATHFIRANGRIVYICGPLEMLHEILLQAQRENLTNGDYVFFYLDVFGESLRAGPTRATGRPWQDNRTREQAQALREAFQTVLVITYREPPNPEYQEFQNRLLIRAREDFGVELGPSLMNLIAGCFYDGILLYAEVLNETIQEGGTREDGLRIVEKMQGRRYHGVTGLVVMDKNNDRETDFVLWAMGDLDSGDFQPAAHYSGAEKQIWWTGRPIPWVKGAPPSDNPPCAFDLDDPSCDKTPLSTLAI
Procedure: (§3) In the presence of [SEQ ID.
(§4) Next, 1-L volume of SEQ ID. […] The plate was incubated at room temperature for 10 min. Fluorescence polarization was then measured on Flexstation 3 (excitation wavelength: 480 nm; emission wavelength: 525 nm and cutoff at 515 nm).

[7] = target: T2, Recombinant human NPRA extracellular domain - human IgG1 Fc fusion (NPRA-Fc) (human, UniProt P16066 33-473); assay: Fluorescence polarization, 5 nM CNP-F* probe with recombinant human NPRA-Fc
T2 construct: extracellular domain; Expressed in Expi293 cells, Protein A purified; N1-L439 and C232 count on the mature NPRA, not on the precursor; also called Natriuretic Peptide Receptor A; not shown: Human IgG1 heavy chain, amino acids E216-G446 (IMGT.org, EU numbering), Accn; P01857.2
T2 sequence (looked up): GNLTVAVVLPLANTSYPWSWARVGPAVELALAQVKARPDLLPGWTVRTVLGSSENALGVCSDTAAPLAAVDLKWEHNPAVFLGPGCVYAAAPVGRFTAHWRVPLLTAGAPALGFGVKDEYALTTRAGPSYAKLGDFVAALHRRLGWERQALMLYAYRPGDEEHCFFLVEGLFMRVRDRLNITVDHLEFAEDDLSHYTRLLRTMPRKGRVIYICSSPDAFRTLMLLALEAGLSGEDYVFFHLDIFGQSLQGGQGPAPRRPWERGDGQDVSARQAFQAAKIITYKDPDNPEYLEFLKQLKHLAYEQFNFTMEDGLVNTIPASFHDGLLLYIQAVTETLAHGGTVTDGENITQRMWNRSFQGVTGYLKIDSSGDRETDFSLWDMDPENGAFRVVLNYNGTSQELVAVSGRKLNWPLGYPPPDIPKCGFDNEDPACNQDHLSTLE

[8] = target: T1, Recombinant human NPRB extracellular …; assay: Fluorescence polarization competition: 150 nM SEQ ID NO: 31 against 5 nM CNP-F* on 50 nM human NPRB
Procedure: as §3, §4

CCCCCCCCCCCCCCCC(=O)N[C@@H](Cc1ccc(O)cc1)C(=O)N[C@@H](CCC(=O)O)C(=O)NCCOCCOCC(=O)NCCOCCOCC(=O)N[C@@H](CCN)C(=O)N[C@@H](CCN)C(=O)NCC(=O)N[C@@H](CC(C)C)C(=O)N[C@@H](CO)C(=O)N[C@@H](CCCCN)C(=O)NCC(=O)N[C@H]1CSSC[C@@H](C(=O)O)NC(=O)CNC(=O)[C@H](CC(C)C)NC(=O)CNC(=O)[C@H](CO)NC(=O)[C@H](CCC(N)=O)NC(=O)[C@H](CO)NC(=O)CNC(=O)[C@H]([C@@H](C)CC)NC(=O)[C@H](CCCNC(=N)N)NC(=O)[C@H](CC(=O)O)NC(=O)[C@H](CC(C)C)NC(=O)[C@H](CCCCN)NC(=O)[C@H](CC(C)C)NC(=O)CNC(=O)[C@H](Cc2ccccc2)NC1=O [SEQ ID NO: 30] (Palmitoyl-YE[AEEA][AEEA][Dab][Dab]GLSKGCFGLKLDRIGSQSGLGC-OH; disulfide 12-28; C-terminus assumed)
Tumor volume compared to the Control group [1]: significant decrease in tumor volume | Ataxia** in n = 3 (Sprague Dawley rats [2]; up to 10 mg/kg): >10 mg/kg | Lethargy* in n = 3 (Sprague Dawley rats [2]; up to 10 mg/kg): ≥10 mg/kg | Swelling and/or Discoloration in n = 3 (Sprague Dawley rats [2]; up to 10 mg/kg): >10 mg/kg | Ataxia** in n = 3 (Sprague Dawley rats [2]; value in parentheses): (3.3) μmol/kg | Lethargy* in n = 3 (Sprague Dawley rats [2]; value in parentheses): (3.3) μmol/kg | Swelling and/or Discoloration in n = 3 (Sprague Dawley rats [2]; value in parentheses): (3.3) μmol/kg | Plasma concentration of cGMP, 2 hr (cGMP; 2 hr): 217.30** pmol/mL | Plasma concentration of cGMP, 6 hr (cGMP; 6 hr): 83.85* pmol/mL | level at 2 h [3]: 12.6 ng/mL | level at 6 h [3]: 1.9 ng/mL

CCCCCCCCCCCCCCCC(=O)NCCOCCOCC(=O)NCCOCCOCC(=O)NCCOCCOCC(=O)N[C@@H](CN)C(=O)N[C@@H](CN)C(=O)O [SEQ ID NO: 14, CH3(CH2)14(C═O)-Aeea-Aeea-Aeea-Dap-Dap] ({Palmitoyl-AEEA-AEEA-AEEA}-[Dap]-[Dap]-OH; C-terminus assumed)
Tumor volume compared to the Control group [1]: did not show a significant reduction in tumor volume | MTD [4]: > 10 µmol/kg | Ataxia** in n = 3 (Sprague Dawley rats [5]): >10 µmol/kg | Swelling and/or Discoloration in n = 3 (Sprague Dawley rats [5]): >10 µmol/kg

CCCCCCCCCCCCCCCC(=O)NCCOCCOCC(=O)NCCOCCOCC(=O)NCCOCCOCC(=O)N[C@H](CCCCN)C(=O)N[C@H](CCCCN)C(=O)O [SEQ ID NO: 3, CH3(CH2)14(C═O)-Aeea-Aeea-Aeea-kk]
MTD [4]: ≥ 5 µmol/kg | Ataxia** in n = 3 (Sprague Dawley rats [5]): ≥5 µmol/kg | Swelling and/or Discoloration in n = 3 (Sprague Dawley rats [5]): ≥3 µmol/kg | Anti-tumor effect vs anti-tigit Ab monotherapy (MC38 colon cancer cells): outperformed the anti-tumor effect of anti-tigit Ab as a monotherapy

B1: CNP-F* probe (C-type natriuretic peptide bound to 5(6)-Carboxyfluorescein) (peptide)
peptide: {5(6)‑carboxyfluorescein}-GLSKGCFGLKLDRIGSMSGLGC
modifications: disulfide 6-22 (inferred)
notes: Made by solid phase synthesis; used at 5 nM in the fluorescence polarization assay; also called CNP probe; CNP based probe
binding result [6]: binds | binding result [7]: no binding

B2: SEQ ID NO: 31, cationic alkyl modified CNP derivative CH3(CH2)14(C=O)-Aeea-Aeea-Aeea-Dap-Dap-GLSKGCFGLKLDRIGSQSGLGC (disulfide bond) (peptide)
peptide: Palmitoyl-[AEEA][AEEA][AEEA][Dap][Dap]GLSKGCFGLKLDRIGSQSGLGC
modifications: disulfide 11-27
notes: The entry holds non-natural residues (Aeea, Dap) before the 22 residues of the CNP part
binding result [8]: binds
